Test results as given in article PMC5442262, “Catechol glucosides act as donor/acceptor substrates of glucansucrase enzymes of Lactobacillus reuteri” (Applied Microbiology and Biotechnology, 2017).

Legend:
Assay type in all cases: biochemical
Gtf180-ΔN [1] = target: T1, Gtf180-ΔN (Limosilactobacillus reuteri, UniProt Q5SBN3); test: MALDI-TOF-MS of products; conditions: 100 mM catG1, 24 h; 25 mM sodium acetate pH 4.7, 1 mM CaCl2, 37 °C; donor and acceptor
T1 construct: recombinant, N-terminally truncated (ΔN)

GtfML1-ΔN = target: T2, GtfML1-ΔN (Limosilactobacillus reuteri, UniProt Q5SBN0); test: MALDI-TOF-MS of products; conditions: 100 mM catG1, 24 h; 25 mM sodium acetate pH 4.7, 1 mM CaCl2, 37 °C; donor and acceptor
T2 construct: recombinant, N-terminally truncated (ΔN); also printed GtfMLI-ΔN

Gtf180-ΔN [2] = target: T1, Gtf180-ΔN; test: NP-HPLC of substrate decrease; 1H NMR of products; conditions: 100 mM cat^6G2; 25 mM sodium acetate pH 4.7, 1 mM CaCl2, 37 °C; donor and acceptor

T1 sequence (Q5SBN3 entry or part of it, stated change not applied): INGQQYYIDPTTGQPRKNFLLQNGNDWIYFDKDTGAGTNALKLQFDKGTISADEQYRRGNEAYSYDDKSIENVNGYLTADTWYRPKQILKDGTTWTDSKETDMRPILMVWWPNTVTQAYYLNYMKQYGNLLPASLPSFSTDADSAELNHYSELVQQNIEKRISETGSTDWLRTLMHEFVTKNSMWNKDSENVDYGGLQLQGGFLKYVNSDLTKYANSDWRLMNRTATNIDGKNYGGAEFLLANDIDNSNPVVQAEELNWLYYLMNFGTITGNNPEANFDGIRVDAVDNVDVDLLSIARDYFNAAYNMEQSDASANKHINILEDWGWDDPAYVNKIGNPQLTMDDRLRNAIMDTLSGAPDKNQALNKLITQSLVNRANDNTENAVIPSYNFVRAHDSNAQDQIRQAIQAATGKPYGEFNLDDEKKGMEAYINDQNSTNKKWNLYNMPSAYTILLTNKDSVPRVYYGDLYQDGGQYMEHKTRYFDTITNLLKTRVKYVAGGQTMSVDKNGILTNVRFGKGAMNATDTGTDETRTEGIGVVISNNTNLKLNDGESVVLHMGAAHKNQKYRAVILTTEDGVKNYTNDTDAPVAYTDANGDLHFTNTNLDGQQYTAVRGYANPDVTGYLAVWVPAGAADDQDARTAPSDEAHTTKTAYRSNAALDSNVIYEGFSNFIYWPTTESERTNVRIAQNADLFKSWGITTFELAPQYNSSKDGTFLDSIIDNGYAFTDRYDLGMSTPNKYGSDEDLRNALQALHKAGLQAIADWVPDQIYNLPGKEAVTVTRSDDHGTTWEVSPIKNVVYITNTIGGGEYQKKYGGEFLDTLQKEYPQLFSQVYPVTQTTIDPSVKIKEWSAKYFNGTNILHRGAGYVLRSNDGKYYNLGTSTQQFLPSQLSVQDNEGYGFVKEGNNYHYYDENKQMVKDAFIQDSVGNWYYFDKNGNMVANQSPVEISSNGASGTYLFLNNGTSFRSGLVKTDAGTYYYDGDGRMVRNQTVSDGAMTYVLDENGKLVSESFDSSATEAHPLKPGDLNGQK
T2 sequence (Q5SBN0 entry or part of it, stated change not applied): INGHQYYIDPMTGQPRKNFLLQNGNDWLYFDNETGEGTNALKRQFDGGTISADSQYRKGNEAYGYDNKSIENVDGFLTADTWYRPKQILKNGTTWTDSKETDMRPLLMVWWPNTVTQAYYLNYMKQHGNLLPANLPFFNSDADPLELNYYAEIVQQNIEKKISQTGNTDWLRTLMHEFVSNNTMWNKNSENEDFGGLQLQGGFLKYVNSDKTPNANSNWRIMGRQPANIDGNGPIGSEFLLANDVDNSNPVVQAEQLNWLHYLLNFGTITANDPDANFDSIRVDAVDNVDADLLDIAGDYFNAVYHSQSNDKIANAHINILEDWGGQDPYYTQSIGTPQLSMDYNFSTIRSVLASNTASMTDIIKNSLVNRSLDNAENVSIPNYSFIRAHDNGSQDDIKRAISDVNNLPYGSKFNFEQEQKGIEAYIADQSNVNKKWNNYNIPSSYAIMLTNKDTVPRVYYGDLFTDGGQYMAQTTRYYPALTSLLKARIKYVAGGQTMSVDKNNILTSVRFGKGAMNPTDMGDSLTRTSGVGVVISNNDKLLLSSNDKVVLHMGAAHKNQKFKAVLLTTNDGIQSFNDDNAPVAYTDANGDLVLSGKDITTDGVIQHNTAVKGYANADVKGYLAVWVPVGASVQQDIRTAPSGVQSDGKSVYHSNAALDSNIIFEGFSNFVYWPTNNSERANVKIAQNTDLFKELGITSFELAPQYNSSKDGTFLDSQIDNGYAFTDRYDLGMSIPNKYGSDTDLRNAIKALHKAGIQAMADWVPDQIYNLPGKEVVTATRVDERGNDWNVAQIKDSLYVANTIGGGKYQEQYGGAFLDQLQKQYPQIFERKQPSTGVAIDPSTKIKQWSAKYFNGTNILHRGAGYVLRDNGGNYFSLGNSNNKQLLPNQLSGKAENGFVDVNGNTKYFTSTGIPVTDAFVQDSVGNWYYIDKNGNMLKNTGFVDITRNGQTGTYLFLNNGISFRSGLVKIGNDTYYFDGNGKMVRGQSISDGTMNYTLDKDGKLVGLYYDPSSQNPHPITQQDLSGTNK

Structure (SMILES) | MALDI-TOF-MS of products (Gtf180-ΔN [1]) | MALDI-TOF-MS of products (GtfML1-ΔN) | NP-HPLC of substrate decrease; 1H NMR of products (Gtf180-ΔN [2])
OC[C@H]1O[C@H](Oc2ccccc2O)[C@H](O)[C@@H](O)[C@@H]1O [catG1] | Gtf180-ΔN and GtfMLI-ΔN glucansucrase enzymes also were able to use catG1 as glucosyl donor | Gtf180-ΔN and GtfMLI-ΔN glucansucrase enzymes also were able to use catG1 as glucosyl donor | 
OC[C@H]1O[C@H](OC[C@H]2O[C@H](Oc3ccccc3O)[C@H](O)[C@@H](O)[C@@H]2O)[C@H](O)[C@@H](O)[C@@H]1O [cat^6G2] |  |  | Gtf180-ΔN used both cat^3G2 and cat^6G2 as donor/acceptor substrates
